Results published in patent publication US20210161131A1, “cis-p-Menthane-1,8-Di-secondary Amine Compounds as well as Their Preparation Methods and Application in Weed Control” (RESEARCH INSTITUTE OF FORESTRY NEW TECHNOLOGY, CHINESE …, priority 2019, published 2021).

Tested on: barnyard grass seeds
Assay: Petri dish seed germination method: inhibition of root and stem growth of barnyard grass
Format: in vivo
Conditions: 96 hours incubation
Experimental: (§1) Step 2: Accurately weigh 1 mmol cis-p-menthane-1,8-di-Schiff base compounds and cis-p-menthane-1,8-di-secondary amine compounds respectively, dissolve each of them with 0.25 mL DMF, and add a drop of Tween 80 in each resulted solution. After being fully dissolved, each solution is transferred to a 100 mL volumetric flask respectively and then diluted to the mark with distilled water to obtain a solution with a concentration of 10 mmol/L as the mother liquor. The two-fold dilution method is used to prepare diluted solutions with a series of concentrations (the concentrations of DMF and Tween 80 in the diluted solutions are the same as those in the mother liquor).
(§2) Barnyard grass seeds are placed in a 28° C. incubator and are soaked in an appropriate amount of distilled water for 12 hours there. After the clean water is filtered out, the seeds are then placed in the 28° C. incubator for 24 hours to germinate. Spread 2 pieces of filter paper in each of several Petri dishes, and place 10 barnyard grass seeds with the same size in each dish. Repeat each treatment for three times The dishes are divided into two groups: test dishes and control dishes. Add into each test dish 10 mL of the sample solution with the corresponding concentration of the target compound, and add into each control dish the same amount of the mixture of water, DMF and Tween 80 as the blank control. Add 10 seeds to each of the dishes (both test dishes and control dishes), place them in an artificial climate incubator, and incubate them for 96 hours under a temperature of 28° C., an illumination of 5000 1×, a photoperiod of day:night=16:8 and a relative humidity of 70-80%. The experimental data is processed and analyzed with DPS software to calculate the inhibition rate (y) of cis-p-menthane-1,8-di-secondary amine compounds on the root growth or stem growth of barnyard grass seeds.
Wherein, y is the inhibition rate of root growth or stem growth (%), x0 is the root length or stem length of the control, and x1 is the root length or stem length of the sample.
as §1, with “Accurately” for “Step 2: Accurately”, “cis-p-menthane-1,8-bis-(4-chlorophenyl)Schiff” for “cis-p-menthane-1,8-di-Schiff”, “base” for “base compounds”, “cis-p-menthane-1,8-bis-(4-chlorobenzyl)amine” for “cis-p-menthane-1,8-di-secondary amine compounds”, “(5 mmol/L, 2.5 mmol/L, 1.25 mmol/L, 0.625 mmol/L, 0.3125 mmol/L and 0.1563 mmol/L; the” for “(the”
as §2, with “placed in a 30° C. incubator” for “placed in the 28° C. incubator”, “in each Petri dish,” for “in each of several Petri dishes,”, “each Petri dish, and place” for “several Petri dishes, and place”, “with the above corresponding concentration” for “with the corresponding concentration”, “with DPS software.” for “with DPS software to calculate the inhibition rate (y) of cis-p-menthane-1,8-di-secondary amine compounds on the root growth or stem growth of barnyard grass seeds.”

| Compound | inhibition rate on the root growth of barnyard grass seeds (0.15625 mmol/L) [%] | inhibition rate on the stem growth of barnyard grass seeds (0.15625 mmol/L) [%] | inhibition rate on the root growth of barnyard grass seeds (0.3125 mmol/L) [%] | inhibition rate on the stem growth of barnyard grass seeds (0.3125 mmol/L) [%] | inhibition rate on the root growth of barnyard grass seeds (0.625 mmol/L) [%] | inhibition rate on the stem growth of barnyard grass seeds (0.625 mmol/L) [%] | inhibition rate on the root growth of barnyard grass seeds (1.25 mmol/L) [%] | inhibition rate on the stem growth of barnyard grass seeds (1.25 mmol/L) [%] | inhibition rate on the root growth of barnyard grass seeds (2.5 mmol/L) [%] | inhibition rate on the stem growth of barnyard grass seeds (2.5 mmol/L) [%] | inhibition rate on the root growth of barnyard grass seeds (5 mmol/L) [%] | inhibition rate on the stem growth of barnyard grass seeds (5 mmol/L) [%] |
| --- | --- | --- | --- | --- | --- | --- | --- | --- | --- | --- | --- | --- |
| CC1(NCc2ccco2)CCC(C(C)(C)NCc2ccco2)CC1 (stereo not drawn) [cis-p-menthane-1,8-bis(furan-2-methyl)amine] | 0 | 0 | 36.3 | 8.6 | 39.0 | 16.1 | 48.8 | 19.3 | 72.7 | 41.1 | 92.7 | 65.3 |
| CC(C)(NCc1ccccn1)[C@H]1CC[C@@](C)(NCc2ccccn2)CC1 [cis-p-menthane-1,8-bis(pyridine-2-methyl)amine] | 18.9 | 23.8 | 20.5 | 26.4 | 33.8 | 30.1 | 61.0 | 46.6 | 95.8 | 65.3 | 100.0 | 88.0 |
| CC1(NCc2cccnc2)CCC(C(C)(C)NCc2cccnc2)CC1 (stereo not drawn) [cis-p-menthane-1,8-bis(pyridine-3-methyl)amine] | 5.7 | 38.0 | 10.2 | 30.6 | 19.2 | 41.5 | 41.4 | 44.6 | 86.1 | 65.3 | 95.2 | 84.9 |
| CC1(NCc2ccncc2)CCC(C(C)(C)NCc2ccncc2)CC1 (stereo not drawn) [cis-p-menthane-1,8-bis(pyridine-4-methyl)amine] | 19.0 | 28.6 | 37.9 | 34.5 | 40.6 | 32.7 | 71.5 | 53.5 | 91.2 | 71.3 | 96.5 | 86.7 |
| CC1(NCc2ccc[nH]2)CCC(C(C)(C)NCc2ccc[nH]2)CC1 (stereo not drawn) [cis-p-menthane-1,8-bis(pyrrole-2-methyl)amine] | 1.7 | 15.4 | 60.5 | 26.5 | 87.7 | 28.6 | 93.1 | 48.2 | 91.9 | 71.5 | 94.4 | 78.3 |
| CC1(NCc2cccs2)CCC(C(C)(C)NCc2cccs2)CC1 (stereo not drawn) [cis-p-menthane-1,8-bis(thiophen-2-methyl)amine] | 0.8 | 13.3 | 1.5 | 28.9 | 5.8 | 39.2 | 50.0 | 45.3 | 75.1 | 51.0 | 86.0 | 59.1 |
| CC1(N=Cc2ccccc2C(F)(F)F)CCC(C(C)(C)N=Cc2ccccc2C(F)(F)F)CC1 (stereo not drawn) [cis-p-menthane-1,8-bis-(2-trifluoromethylbenzyl)Schiff base, reference compound] |  |  | 20.9 | 9 | 15.4 | 13.2 | 2.7 | 17.7 | 20.6 | 12.1 | 34.8 | 21.2 |
| CC(C)(NCc1ccccc1C(F)(F)F)[C@H]1CC[C@@](C)(NCc2ccccc2C(F)(F)F)CC1 [cis-p-menthane-1,8-bis-(2-trifluoromethylbenzyl)amine] | 51.9 | 36.9 | 57.0 | 43.6 | 68.0 | 49.0 | 93. | 59.6 | 100 | 87.4 | 100 | 90.3 |
